# Assay results published in patent US12371454B2, “Cyclic peptide compound having Kras inhibitory action” (priority 2019, dated 2025).
# Positions of bridges follow the written chain, without caps; N, C: chain ends. Non-standard residues stand in square brackets, D forms with d. Residues, ends and D or L forms follow the SMILES beside them. *: point of attachment. hPhe(3,5-F2-4-CF3) = N[C@@H](CCc1cc(F)c(C(F)(F)F)c(F)c1)C(=O)O; hPhe(3-Cl-4-CF3) = N[C@@H](CCc1ccc(C(F)(F)F)c(Cl)c1)C(=O)O; hPhe(3-F,4-CF3) = N[C@@H](CCc1ccc(C(F)(F)F)c(F)c1)C(=O)O; Piperazinyl(4-(3-oxetanyl)) = C1OCC1N1CCN(*)CC1; 3Oxa8azabicyclo(3.2.1)octane = C1CC2COCC1N2*; NMeAbu(4,4,4-F3) = CN[C@@H](CC(F)(F)F)C(=O)O; NMePhe(4-Me) = CN[C@@H](Cc1ccc(C)cc1)C(=O)O; NMeGly(cPent) = CN[C@H](C(=O)O)C1CCCC1; NMeGly(cBu) = CN[C@H](C(=O)O)C1CCC1; NMeCha = CN[C@@H](CC1CCCCC1)C(=O)O; NEtLeu = CCN[C@@H](CC(C)C)C(=O)O; NMeChg = CN[C@H](C(=O)O)C1CCCCC1; NMeI = CC[C@H](C)[C@H](NC)C(=O)O; NMeD = CN[C@@H](CC(=O)O)C(=O)O; NMeL = CN[C@@H](CC(C)C)C(=O)O; Oxazolidin(3-yl) = C1CN(*)CO1; d(β3hP) = O=C(O)C[C@H]1CCCN1; NMeNva = CCC[C@H](NC)C(=O)O; NMeV = CN[C@H](C(=O)O)C(C)C; Iva = CC[C@](C)(N)C(=O)O; NMeA = CN[C@@H](C)C(=O)O; Piperidide = C1CCN(*)CC1; Pyrrolidide = C1CCN(*)C1; Ac5c = NC1(C(=O)O)CCCC1; Aze = O=C(O)[C@@H]1CCN1; X1 = FC1(F)CN(*)CC1(F)F; X14 = CC1(C)CCN(*)C1; NEtG = CCNCC(=O)O; Sar = CNCC(=O)O
# Tests used:
# [1] = tested on: Human pancreatic cancer cell line AsPC-1; assay: Measurement of AsPC-1 cell growth inhibition (AsPC-1 CGI); assay type: cell-based; conditions: 96 h
# Procedure, shortened: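 AsPC-1 cells in 15% FBS RPMI-1640 were exposed to test compound for 96 hours at 37° C, with CellTiter-Glo as endpoint.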
# [2] = biological target: T1, Kras and SOS1 (biotin-tagged human Kras loaded with GDP, His-tagged human SOS1) (Homo sapiens, UniProt P01116, G12D); assay: Protein-protein interaction inhibition between Kras and SOS1 (KrasGl2D-SOS PPI) using AlphaScreen; assay type: binding; conditions: AlphaScreen; biotin-tagged human Kras loaded with GDP, His-tagged human SOS1; read-out: KRAS G12D-SOS PPI IC50
# T1 construct: made in house; host or cells: E. coli (stated for Kras only)
# T1 sequence (P01116 1-188 isoform P01116-2 G12D): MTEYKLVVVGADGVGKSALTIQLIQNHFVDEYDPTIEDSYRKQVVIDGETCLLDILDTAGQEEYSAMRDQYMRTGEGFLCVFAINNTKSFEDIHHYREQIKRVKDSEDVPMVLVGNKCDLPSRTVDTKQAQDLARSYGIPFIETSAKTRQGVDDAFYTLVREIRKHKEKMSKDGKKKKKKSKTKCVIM
# Procedure, shortened: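 Donor beads (nickel) hold His-SOS1; acceptor beads (streptavidin) hold biotin-Kras bound to GDP. Signal measured at 520-620 nm following 680 nm excitation.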
Compound,IC50 [1] [nM],IC50 [2] [nM]
CC[C@H](C)[C@@H]1NC(=O)[C@H](CC(C)C)N(C)C(=O)C[C@@H](C(=O)N2CCCCC2)N(C)C(=O)[C@H](C2CCCCC2)N(C)C(=O)C2(CCCC2)NC(=O)[C@@H]2CCCN2C(=O)[C@H](CCc2ccc(C(F)(F)F)c(Cl)c2)NC(=O)CN(CC)C(=O)[C@H](CC2CCCCC2)N(C)C(=O)CN(C)C(=O)CN(C)C1=O [Compound 1203] ([NMeL]I[Sar][Sar][NMeCha][NEtG][hPhe(3-Cl-4-CF3)]P[Ac5c][NMeChg][NMeD]-Piperidide; lactam N-11),100 to 500,2.1
CC[C@H](C)[C@@H]1NC(=O)[C@H](CC(C)C)N(C)C(=O)C[C@@H](C(=O)N2CC(F)(F)C(F)(F)C2)N(C)C(=O)[C@H](C2CCCCC2)N(C)C(=O)C2(CCCC2)NC(=O)[C@@H]2CCCN2C(=O)[C@H](CCc2ccc(C(F)(F)F)c(Cl)c2)NC(=O)CN(C)C(=O)[C@H](CC2CCCCC2)N(C)C(=O)CN(C)C(=O)CN(C)C1=O [Compound 1207] ([NMeL]I[Sar][Sar][NMeCha][Sar][hPhe(3-Cl-4-CF3)]P[Ac5c][NMeChg][NMeD]-X1; lactam N-11),100 to 500,2.7
CC[C@H](C)[C@@H]1NC(=O)[C@H](CC(C)C)N(C)C(=O)C[C@@H](C(=O)N2CCCCC2)N(C)C(=O)[C@H](C2CCCCC2)N(C)C(=O)C2(CCCC2)NC(=O)[C@@H]2CCCN2C(=O)[C@H](CCc2ccc(C(F)(F)F)c(Cl)c2)NC(=O)CN(C)C(=O)[C@H](CC2CCCCC2)N(C)C(=O)CN(CC)C(=O)CN(C)C1=O [Compound 1227] ([NMeL]I[Sar][NEtG][NMeCha][Sar][hPhe(3-Cl-4-CF3)]P[Ac5c][NMeChg][NMeD]-Piperidide; lactam N-11),100 to 500,1.3
"CC[C@H](C)[C@@H]1NC(=O)[C@H](CC(F)(F)F)N(C)C(=O)C[C@@H](C(=O)N2CCCC2)N(C)C(=O)[C@H](C2CCCCC2)N(C)C(=O)C2(CCCC2)NC(=O)[C@@H]2CCCN2C(=O)[C@H](CCc2cc(F)c(C(F)(F)F)c(F)c2)NC(=O)CN(C)C(=O)[C@H](CC2CCCCC2)N(C)C(=O)CN(C)C(=O)CN(C)C1=O [Compound 1228] ([NMeAbu(4,4,4-F3)]I[Sar][Sar][NMeCha][Sar][hPhe(3,5-F2-4-CF3)]P[Ac5c][NMeChg][NMeD]-Pyrrolidide; lactam N-11)",20 to 50,0.59
CC[C@H](C)[C@@H]1NC(=O)[C@H](CC(C)C)N(C)C(=O)C[C@@H](C(=O)N2C3CCC2COC3)N(C)C(=O)[C@H](C(C)C)N(C)C(=O)C2(CCCC2)NC(=O)[C@@H]2CCCN2C(=O)[C@H](CCc2ccc(C(F)(F)F)c(Cl)c2)NC(=O)CN(C)C(=O)[C@H](CC2CCCCC2)N(C)C(=O)[C@@H]2CCN2C(=O)[C@H](C)N(C)C1=O [Compound 1235] ([NMeL]I[NMeA][Aze][NMeCha][Sar][hPhe(3-Cl-4-CF3)]P[Ac5c][NMeV][NMeD]-{3Oxa8azabicyclo(3.2.1)octane}; lactam N-11),100 to 500,5.5
"CC[C@H](C)[C@@H]1NC(=O)[C@H](CC(C)C)N(CC)C(=O)C[C@@H](C(=O)N(C)C)N(C)C(=O)[C@H](C2CCCC2)N(C)C(=O)C2(CCCC2)NC(=O)[C@@H]2CCCN2C(=O)[C@H](CCc2ccc(C(F)(F)F)c(F)c2)NC(=O)CN(C)C(=O)[C@H](CC2CCCCC2)N(C)C(=O)[C@@H]2CCN2C(=O)[C@H](C)NC1=O [Compound 1252] ([NEtLeu]IA[Aze][NMeCha][Sar][hPhe(3-F,4-CF3)]P[Ac5c][NMeGly(cPent)][NMeD]-NMe2; lactam N-11)",100 to 500,2.5
"CCC[C@H]1C(=O)N[C@@H]([C@@H](C)CC)C(=O)N(C)CC(=O)N(C)CC(=O)N(C)[C@@H](CC2CCCCC2)C(=O)N(C)CC(=O)N[C@@H](CCc2cc(F)c(C(F)(F)F)c(F)c2)C(=O)N2CCC[C@H]2C(=O)NC2(CCCC2)C(=O)N(C)[C@@H](C2CCCCC2)C(=O)N(C)[C@H](C(=O)N2CCCC2)CC(=O)N1C [Compound 1253] ([NMeNva]I[Sar][Sar][NMeCha][Sar][hPhe(3,5-F2-4-CF3)]P[Ac5c][NMeChg][NMeD]-Pyrrolidide; lactam N-11)",20 to 50,0.81
CC[C@H](C)[C@@H]1NC(=O)[C@H](CC(C)C)N(C)C(=O)C[C@@H](C(=O)N2CCCCC2)N(C)C(=O)[C@H](C2CCCCC2)N(C)C(=O)C2(CCCC2)NC(=O)[C@@H]2CCCN2C(=O)[C@H](CCc2ccc(C(F)(F)F)c(Cl)c2)NC(=O)CN(C)C(=O)[C@H](CC2CCCCC2)N(C)C(=O)CN(C)C(=O)CN(CC)C1=O [Compound 1255] ([NMeL]I[NEtG][Sar][NMeCha][Sar][hPhe(3-Cl-4-CF3)]P[Ac5c][NMeChg][NMeD]-Piperidide; lactam N-11),100 to 500,1.4
CC[C@H](C)[C@@H]1NC(=O)[C@H](CC(C)C)N(C)C(=O)C[C@@H](C(=O)N2CCC(C)(C)C2)NC(=O)[C@H]([C@@H](C)CC)N(C)C(=O)C2(CCCC2)NC(=O)[C@@H]2CCCN2C(=O)[C@H](CCc2ccc(C(F)(F)F)c(Cl)c2)NC(=O)CN(C)C(=O)[C@H](CC2CCCCC2)N(C)C(=O)CN(C)C(=O)CN(C)C1=O [Compound 1273] ([NMeL]I[Sar][Sar][NMeCha][Sar][hPhe(3-Cl-4-CF3)]P[Ac5c][NMeI]D-X14; lactam N-11),100 to 500,7.2
"CC[C@H](C)[C@@H]1NC(=O)[C@H](C2CCC2)N(C)C(=O)C[C@@H](C(=O)N2CCCC2)N(C)C(=O)[C@H](C2CCCCC2)N(C)C(=O)C2(CCCC2)NC(=O)[C@@H]2CCCN2C(=O)[C@H](CCc2cc(F)c(C(F)(F)F)c(F)c2)NC(=O)CN(C)C(=O)[C@H](CC2CCCCC2)N(C)C(=O)CN(C)C(=O)CN(C)C1=O [Compound 1275] ([NMeGly(cBu)]I[Sar][Sar][NMeCha][Sar][hPhe(3,5-F2-4-CF3)]P[Ac5c][NMeChg][NMeD]-Pyrrolidide; lactam N-11)",20 to 50,0.65
"CC[C@H](C)[C@@H]1NC(=O)[C@H](CC(F)(F)F)N(C)C(=O)C[C@@H](C(=O)N2CCCC2)N(C)C(=O)[C@H](C2CCCCC2)N(C)C(=O)C2(CCCC2)NC(=O)[C@@H]2CCCN2C(=O)[C@H](CCc2cc(F)c(C(F)(F)F)c(F)c2)NC(=O)CN(C)C(=O)[C@H](Cc2ccc(C)cc2)N(C)C(=O)CN(C)C(=O)CN(C)C1=O [Compound 1278] ([NMeAbu(4,4,4-F3)]I[Sar][Sar][NMePhe(4-Me)][Sar][hPhe(3,5-F2-4-CF3)]P[Ac5c][NMeChg][NMeD]-Pyrrolidide; lactam N-11)",20 to 50,0.65
CC[C@H](C)[C@@H]1NC(=O)[C@H](CC(C)C)N(C)C(=O)C[C@@H](C(=O)N2CCN(C3COC3)CC2)N(C)C(=O)[C@H](C2CCCCC2)N(C)C(=O)C2(CCCC2)NC(=O)[C@@H]2CCCN2C(=O)[C@H](CCc2ccc(C(F)(F)F)c(Cl)c2)NC(=O)CN(C)C(=O)[C@H](CC2CCCCC2)N(C)C(=O)CN(C)C(=O)CN(C)C1=O [Compound 1284] ([NMeL]I[Sar][Sar][NMeCha][Sar][hPhe(3-Cl-4-CF3)]P[Ac5c][NMeChg][NMeD]-{Piperazinyl(4-(3-oxetanyl))}; lactam N-11),100 to 500,0.69
CC[C@H](C)[C@@H]1NC(=O)[C@H](CC(C)C)N(C)C(=O)C[C@@H](C(=O)N2CCCCC2)N(C)C(=O)[C@H](C2CCCCC2)N(C)C(=O)[C@](C)(CC)NC(=O)[C@@H]2CCCN2C(=O)[C@H](CCc2ccc(C(F)(F)F)c(Cl)c2)NC(=O)CN(C)C(=O)[C@H](CC2CCCCC2)N(C)C(=O)CN(C)C(=O)CN(C)C1=O [Compound 1302] ([NMeL]I[Sar][Sar][NMeCha][Sar][hPhe(3-Cl-4-CF3)]P[Iva][NMeChg][NMeD]-Piperidide; lactam N-11),100 to 500,0.75
CC[C@H](C)[C@@H]1NC(=O)[C@H](CC(C)C)N(C)C(=O)C[C@@H](C(=O)N2CCCCC2)N(C)C(=O)[C@H](C2CCCCC2)N(C)C(=O)C2(CCCC2)NC(=O)[C@@H]2CCCN2C(=O)[C@H](CCc2ccc(C(F)(F)F)c(Cl)c2)NC(=O)CN(C)C(=O)[C@H](CC2CCCCC2)N(C)C(=O)CN(C)C(=O)CNC1=O [Compound 1315] ([NMeL]IG[Sar][NMeCha][Sar][hPhe(3-Cl-4-CF3)]P[Ac5c][NMeChg][NMeD]-Piperidide; lactam N-11),100 to 500,1
CC[C@H](C)[C@@H]1NC(=O)[C@H](CC(C)C)N(C)C(=O)C[C@@H](C(=O)N2CCC(C)(C)C2)N(C)C(=O)[C@H](C(C)C)N(C)C(=O)C2(CCCC2)NC(=O)[C@@H]2CCCN2C(=O)[C@H](CCc2ccc(C(F)(F)F)c(Cl)c2)NC(=O)CN(C)C(=O)[C@H](CC2CCCCC2)N(C)C(=O)[C@@H]2CCN2C(=O)[C@H](C)N(C)C1=O [Compound 1323] ([NMeL]I[NMeA][Aze][NMeCha][Sar][hPhe(3-Cl-4-CF3)]P[Ac5c][NMeV][NMeD]-X14; lactam N-11),100 to 500,4.3
CC[C@H](C)[C@@H]1NC(=O)[C@H](CC(C)C)N(C)C(=O)C[C@@H](C(=O)N2CCOC2)N(C)C(=O)[C@H](C(C)C)N(C)C(=O)C2(CCCC2)NC(=O)[C@@H]2CCCN2C(=O)[C@H](CCc2ccc(C(F)(F)F)c(Cl)c2)NC(=O)CN(C)C(=O)[C@H](CC2CCCCC2)N(C)C(=O)[C@@H]2CCN2C(=O)[C@H](C)N(C)C1=O [Compound 1329] ([NMeL]I[NMeA][Aze][NMeCha][Sar][hPhe(3-Cl-4-CF3)]P[Ac5c][NMeV][NMeD]-{Oxazolidin(3-yl)}; lactam N-11),100 to 500,1.7
CC[C@H](C)[C@@H]1NC(=O)[C@H](CC(C)C)N(C)C(=O)C[C@H]2CCCN2C(=O)[C@H](C(C)C)N(C)C(=O)C2(CCCC2)NC(=O)[C@@H]2CCCN2C(=O)[C@H](CCc2ccc(C(F)(F)F)c(Cl)c2)NC(=O)CN(C)C(=O)[C@H](CC2CCCCC2)N(C)C(=O)[C@@H]2CCN2C(=O)[C@H](C)N(C)C1=O [Compound 1332] (cyclo([Ac5c][NMeV][d(β3hP)][NMeL]I[NMeA][Aze][NMeCha][Sar][hPhe(3-Cl-4-CF3)]P)),100 to 500,23
